From patent US11702404B2, “GLP-1R modulating compounds” (priority 2019, dated 2023)
Like-named read-outs stand apart in the source and are kept apart here.

How the values were obtained:
[1] = Microsomal stability, human liver microsomes (predicted hepatic clearance); details: predicted from in vitro microsomal stability data
GLP-1R = GLP-1R (Homo sapiens, UniProt P43220); test: GLP-1R activation: cAMP increase in CHO cells stably expressing GLP-1R; format: cell-based
[2] = cAMP increase, CHO cells stably expressing GLP-1R, 10 point dose response, 30 minutes incubation, read-out: EC50

Chain of GLP-1R (P43220 24-463): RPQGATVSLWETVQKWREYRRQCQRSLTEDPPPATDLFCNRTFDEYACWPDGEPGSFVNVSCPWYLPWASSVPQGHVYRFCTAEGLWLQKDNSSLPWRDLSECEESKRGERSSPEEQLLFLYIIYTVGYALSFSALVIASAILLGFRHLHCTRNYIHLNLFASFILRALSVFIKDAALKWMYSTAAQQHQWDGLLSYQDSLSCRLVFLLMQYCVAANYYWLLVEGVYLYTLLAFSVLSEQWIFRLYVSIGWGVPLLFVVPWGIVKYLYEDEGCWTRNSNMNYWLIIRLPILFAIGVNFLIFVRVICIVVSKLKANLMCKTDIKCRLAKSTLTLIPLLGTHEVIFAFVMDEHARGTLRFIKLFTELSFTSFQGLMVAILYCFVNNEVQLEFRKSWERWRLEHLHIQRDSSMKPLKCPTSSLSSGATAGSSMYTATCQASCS

Row | Structure (SMILES) | Predicted Hepatic Clearance (Pred. Cl.) [1] | EC50 (GLP-1R; [2]) | EC50 (GLP-1R; read-out: EC50) | EC50 (GLP-1R; EC50 (nM))
1 | CO[C@H]1CCC[C@@H]1n1c(Cc2cc(F)c(-c3cccc(OCc4ccc(C#N)cc4F)n3)cc2F)nc2ccc(C(=O)O)cc21 [Example 709] | 8.83 mL/min/kg | 4.77 nM |  | 
2 | N#Cc1ccc(COc2cccc(-c3ccc(Cc4nc5c(F)cc(C(=O)O)cc5n4CC4(C(F)F)CC4)c(F)c3)n2)c(F)c1 [Example 297, 2-(4-(6-((4-cyano-2-fluorobenzyl)oxy)pyridin-2-yl)-2-fluorobenzyl)-1-((1-(difluoromethyl)cyclopropyl)methyl)-4-fluoro-1H-benzo[d]imidazole-6-carboxylic acid] | 2.5 mL/min/kg | 1.71 nM |  | 
3 | CO[C@H]1C[C@@H](Cn2c(Cc3cc(F)c(-c4cccc(OCc5ccc(C#N)cc5F)n4)cc3F)nc3ccc(C(=O)O)cc32)C1 [Example 744] | 1.83 mL/min/kg | 10.6 nM |  | 
4 | N#Cc1ccc(COc2cccc(-c3cc(F)c(Cc4nc5c(F)cc(C(=O)O)cc5n4C[C@@H]4CCO4)cc3F)n2)c(F)c1 [Example 896] | 4.5 mL/min/kg | 0.03 nM |  | 
5 | N#Cc1ccc(COc2cccc(-c3ccc(Cc4nc5ccc(C(=O)O)cc5n4Cc4cncnc4)c(F)c3)n2)c(F)c1 [Example 532, 2-(4-(6-((4-cyano-2-fluorobenzyl)oxy)pyridin-2-yl)-2-fluorobenzyl)-1-(pyrimidin-5-ylmethyl)-1H-benzo[d]imidazole-6-carboxylic acid] | <1.83 mL/min/kg | 58.6 nM |  | 
6 | O=C(O)c1ccc2nc(Cc3ccc(-c4ccnc(OCc5ccc(C(F)F)cc5F)n4)c(F)c3)n(C[C@@H]3CCO3)c2c1 [Example 790] | 3 mL/min/kg | 0.44 nM |  | 
7 | CC(C)(C)OC(=O)N(CCn1c(Cc2cc(F)c(-c3cccc(OCc4ccc(C#N)cc4F)n3)cc2F)nc2ccc(C(=O)O)cc21)C1CC1 [Example 907, 1-(2-((tert-butoxycarbonyl)(cyclopropyl)amino)ethyl)-2-(4-(6-((4-cyano-2-fluorobenzyl)oxy)pyridin-2-yl)-2,5-difluorobenzyl)-1H-benzo[d]imidazole-6-carboxylic acid] | 8.5 mL/min/kg |  | 9960 nM | 
8 | COCCn1c(Cn2ccc(-c3cccc(OCc4ccc(C#N)cc4F)n3)cc2=O)nc2ccc(C(=O)O)cc21 [Example 61, 2-((6-((4-cyano-2-fluorobenzyl)oxy)-2′-oxo-[2,4′-bipyridin]-1′(2′H)-yl)methyl)-1-(2-methoxyethyl)-1H-benzo[d]imidazole-6-carboxylic acid] | <1.83 mL/min/kg | 18 nM |  | 
9 | COCCn1c(Cc2ccc(-c3cccc(OCc4ccccc4-c4ccccc4)n3)cc2F)nc2ccc(C(=O)O)cc21 [Example 500, 2-(4-(6-([1,1′-biphenyl]-2-ylmethoxy)pyridin-2-yl)-2-fluorobenzyl)-1-(2-methoxyethyl)-1H-benzo[d]imidazole-6-carboxylic acid] | 9.67 mL/min/kg | 474 nM |  | 
10 | N#Cc1ccc(COc2cccc(-c3cc(=O)n(Cc4nc5ccc(C(=O)O)cc5n4CC45CC(CO4)C5)cc3F)n2)c(F)c1 [Example 683] | 6.5 mL/min/kg | 2.41 nM |  | 
11 | N#CCC1(Cn2c(Cc3cc(F)c(-c4ccc(F)c(OCc5ccc(C#N)cc5F)n4)cc3F)nc3ccc(C(=O)O)nc32)CC1 [Example 130, 2-(4-(6-((4-cyano-2-fluorobenzyl)oxy)-5-fluoropyridin-2-yl)-2,5-difluorobenzyl)-3-((1-(cyanomethyl)cyclopropyl)methyl)-3H-imidazo[4,5-b]pyridine-5-carboxylic acid] | 5.5 mL/min/kg | 0.11 nM |  | 
12 | N#Cc1ccc(COc2cccc(-c3ccc(Cc4nc5c(F)cc(C(=O)O)cc5n4C[C@@H](O)CCO)cc3F)n2)c(F)c1 [Example 471, (S)-2-(4-(6-((4-cyano-2-fluorobenzyl)oxy)pyridin-2-yl)-3-fluorobenzyl)-1-(2,4-dihydroxybutyl)-4-fluoro-1H-benzo[d]imidazole-6-carboxylic] | 4 mL/min/kg | 13.7 nM |  | 
13 | COCCn1c(Cc2cc(F)c(-c3ccc(F)c(OCc4ccc(C#N)cc4F)n3)cc2F)nc2ccc(C(=O)O)cc21 [Example 217, 2-(4-(6-((4-cyano-2-fluorobenzyl)oxy)-5-fluoropyridin-2-yl)-2,5-difluorobenzyl)-1-(2-methoxyethyl)-1H-benzo[d]imidazole-carboxylic acid] | 2.75 mL/min/kg |  |  | 1.72 nM
14 | COCCn1c(Cc2cc(F)c(-c3cccc(OCc4cc(C#N)cs4)n3)cc2F)nc2ccc(C(=O)O)cc21 [Example 804] | 11.5 mL/min/kg | 43.6 nM |  | 
15 | COCCn1c(Cc2ccc(-c3cccc(OCc4ccc(C#N)cc4OC(F)F)n3)cc2F)nc2ccc(C(=O)O)cc21 [Example 234, 2-(4-(6-((4-cyano-2-(difluoromethoxy)benzyl)oxy)pyridin-2-yl)-2-fluorobenzyl)-1-(2-methoxyethyl)-1H-benzo[d]imidazole-6-carboxylic acid] | <1.83 mL/min/kg | 6.95 nM |  | 
16 | N#Cc1ccc(COc2nccc(-c3cc(F)c(Cc4nc5c(F)cc(C(=O)O)cc5n4C[C@@H]4CCO4)cc3F)n2)c(F)c1 [Example 420, (S)-2-(4-(2-((4-cyano-2-fluorobenzyl)oxy)pyrimidin-4-yl)-2,5-difluorobenzyl)-4-fluoro-1-(oxetan-2-ylmethyl)-1H-benzo[d]imidazole-6-carboxylic acid] | 3.5 mL/min/kg | 0.05 nM |  | 
17 | N#Cc1ccc(COc2ccnc(-c3cc(F)c(Cc4nc5c(F)cc(C(=O)O)cc5n4C[C@@H]4CCO4)cc3F)n2)c(F)c1 [Example 778] | 3.67 mL/min/kg | 0.13 nM |  | 
18 | COCCn1c(Cc2ccc(-c3cccc(OCc4cccc5c4oc4ccccc45)n3)cc2F)nc2ccc(C(=O)O)cc21 [Example 265, 2-(4-(6-(dibenzo[b,d]furan-4-ylmethoxy)pyridin-2-yl)-2-fluorobenzyl)-1-(2-methoxyethyl)-1H-benzo[d]imidazole-6-carboxylic acid] | 5.67 mL/min/kg | 2.08 nM |  | 
19 | COCCn1c(Cc2cc(F)c(-c3cccc(OCc4ccc(C#N)c(F)c4)n3)cc2F)nc2ccc(C(=O)O)cc21 [Example 603, 2-(4-(6-((4-cyano-3-fluorobenzyl)oxy)pyridin-2-yl)-2,5-difluorobenzyl)-1-(2-methoxyethyl)-1H-benzo[d]imidazole-6-carboxylic acid] | 2.83 mL/min/kg |  |  | 4.13 nM
20 | CC1(Cn2c(Cc3ccc(-c4cccc(OCc5ccc(C#N)cc5F)n4)cc3F)nc3ccc(C(=O)O)nc32)CC1 [Example 18, 2-(4-(6-((4-cyano-2-fluorobenzyl)oxy)pyridin-2-yl)-2-fluorobenzyl)-3-((1-methylcyclopropyl)methyl)-3H-imidazo[4,5-b]pyridine-5-carboxylic acid] | 2.5 mL/min/kg | 3.6 nM |  | 
21 | N#CCC1(Cn2c(Cc3cc(F)c(-c4ccnc(OCc5ccc(C#N)cc5F)n4)cc3F)nc3ccc(C(=O)O)cc32)CC1 [Example 441, 2-(4-(2-((4-cyano-2-fluorobenzyl)oxy)pyrimidin-4-yl)-2,5-difluorobenzyl)-1-((1-(cyanomethyl)cyclopropyl)methyl)-1H-benzo[d]imidazole-6-carboxylic acid] | 3 mL/min/kg | 0.21 nM |  | 
22 | N#Cc1ccc(COc2nccc(-c3cc(F)c(Cc4nc5ccc(C(=O)O)cc5n4CC4(CF)CC4)c(F)c3)n2)c(F)c1 [Example 317, 2-(4-(2-((4-cyano-2-fluorobenzyl)oxy)pyrimidin-4-yl)-2,6-difluorobenzyl)-1-((1-(fluoromethyl)cyclopropyl)methyl)-1H-benzo[d]imidazole-6-carboxylic acid] | 2.67 mL/min/kg | 1.05 nM |  | 
23 | N#Cc1ccc(COc2cccc(-c3cc(F)c(Cc4nc5ccc(C(=O)O)cc5n4[C@H]4COC[C@H]4O)cc3F)n2)c(F)c1 [Example 613] | 6.5 mL/min/kg | 0.54 nM |  | 
24 | N#Cc1ccc(COc2nccc(-c3cc(F)c(Cc4nc5c(F)cc(C(=O)O)cc5n4CC4(CF)CC4)cc3F)n2)c(F)c1 [Example 412, 2-(4-(2-((4-cyano-2-fluorobenzyl)oxy)pyrimidin-4-yl)-2,5-difluorobenzyl)-4-fluoro-1-((1-(fluoromethyl)cyclopropyl)methyl)-1H-benzo[d]imidazole-6-carboxylic acid] | <1.83 mL/min/kg | 0.33 nM |  | 
25 | N#Cc1ccc(COc2cccc(-c3ccc(Cc4nc5ccc(C(=O)O)nc5n4CC4(CF)CC4)cc3F)n2)c(F)c1 [Example 277, 2-(4-(6-((4-cyano-2-fluorobenzyl)oxy)pyridin-2-yl)-3-fluorobenzyl)-3-((1-(fluoromethyl)cyclopropyl)methyl)-3H-imidazo[4,5-b]pyridine-5-carboxylic acid] | 7.17 mL/min/kg | 1.57 nM |  | 
26 | N#Cc1ccc(COc2cccc(-c3ccc(Cc4nc5ccc(C(=O)NS(=O)(=O)C6CC6)cc5n4CC4(CF)CC4)c(F)c3)n2)c(F)c1 [Example 57, 2-(4-(6-((4-cyano-2-fluorobenzyl)oxy)pyridin-2-yl)-2-fluorobenzyl)-N-(cyclopropylsulfonyl)-1-((1-(fluoromethyl)cyclopropyl)methyl)-1H-benzo[d]imidazole-6-carboxamide] | <1.83 mL/min/kg | 6.7 nM |  | 
27 | O=C(O)c1ccc2nc(Cc3ccc(-c4cccc(OCc5ccc(C(F)(F)F)cc5F)n4)cc3F)n(C[C@@H]3CCO3)c2c1 [Example 667] | 6 mL/min/kg | 0.1 nM |  | 
28 | N#Cc1ccc(COc2nc(-c3ccc(Cc4nc5c(F)cc(C(=O)O)cc5n4C[C@@H]4CCO4)cc3F)ccc2F)c(F)c1 [Example 780] | 1.83 mL/min/kg | 0.12 nM |  | 
